The supplement of paper PMC10307832

These cell lines were tested with C1=CC2=C(C=C(C(=C2N=C1)O)N=NC3=CC4=C(C=C3)C=C(C=C4)S(=O)(=O)O)S(=O)(=O)O + CC(C)C[C@H](NC(=O)[C@H](Cc1ccccc1)NC(=O)c1cnccn1)B(O)O [Bortezomib] (partner 0.002 µM) (assay: relative viability (nuclei count vs DMSO), 5 days (fraction); higher = more cells survive). Conditions: first compound 8 µM.
How it was run: (§1)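 One day after seeding in 1536-well plates, lung cancer cell lines were dosed by pin tool. Dosing was either single-drug or a fixed anchor-drug dose plus five library-drug doses (not always all listed) in √10 steps. After 5 days, nuclei were stained in one fix-and-stain step and counted on 4× images, and relative viability is the nuclei count of treated wells over that of vehicle wells, given as the median of duplicate plates.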

Cell Line | relative viability
HCC-827 | 1.03
LXF-289 | 0.945
NCI-H23 | 0.897
NCI-H647 | 1.19
NCI-H1651 | 0.755
EPLC-272H | 0.902
NCI-H1792 | 0.908
NCI-H1355 | 1.29
NCI-H3122 | 0.987
NCI-H1437 | 0.4
NCI-H1755 | 0.958
NCI-H2023 | 0.978
HCC-15 | 0.992
PC-14 | 0.856
EKVX | 1.01
LC-2-ad | 0.902

What follows are cell lines tested with C1=CC2=C(C=C(C(=C2N=C1)O)N=NC3=CC4=C(C=C3)C=C(C=C4)S(=O)(=O)O)S(=O)(=O)O + Nc1ncn([C@H]2C[C@H](O)[C@@H](CO)O2)c(=O)n1 [Decitabine] (partner 2 µM) in the same assay as above. Conditions: first compound 0.08 µM.
How it was run: as §1

Cell Line | relative viability
HCC-44 | 0.935
LU99A | 0.91
BEN | 0.735
HARA | 0.69
HCC-78 | 0.796
NCI-H322M | 0.764
LCLC-97TM1 | 0.217
NCI-H2009 | 0.351
A-427 | 0.558
NCI-H441 | 0.245
NCI-H661 | 0.566
NCI-H1734 | 0.493
NCI-H460 | 0.506
NCI-H2347 | 0.586
SK-LU-1 | 0.795
201T | 0.887
NCI-H1915 | 0.25

Cell Line | relative viability
HCC-827 | 0.402
LXF-289 | 0.412
NCI-H23 | 0.331
NCI-H647 | 0.35
NCI-H1651 | 0.79
EPLC-272H | 0.415
NCI-H1792 | 0.627
NCI-H1355 | 0.4
NCI-H3122 | 0.415
NCI-H1437 | 0.603
NCI-H1755 | 0.771
NCI-H2023 | 0.24
HCC-15 | 0.723
PC-14 | 0.184
EKVX | 0.334
LC-2-ad | 0.909

Same assay, conditions: first compound 0.253 µM

Cell Line | relative viability
HCC-44 | 0.932
LU99A | 0.818
BEN | 0.745
HARA | 0.584
HCC-78 | 0.671
NCI-H322M | 0.715
LCLC-97TM1 | 0.29
NCI-H2009 | 0.327
A-427 | 0.554
NCI-H441 | 0.246
NCI-H661 | 0.446
NCI-H1734 | 0.439
NCI-H460 | 0.487
NCI-H2347 | 0.61
SK-LU-1 | 0.679
201T | 0.848
NCI-H1915 | 0.25

Cell Line | relative viability
HCC-827 | 0.311
LXF-289 | 0.383
NCI-H23 | 0.304
NCI-H647 | 0.412
NCI-H1651 | 0.548
EPLC-272H | 0.372
NCI-H1792 | 0.483
NCI-H1355 | 0.363
NCI-H3122 | 0.471
NCI-H1437 | 0.567
NCI-H1755 | 0.679
NCI-H2023 | 0.243
HCC-15 | 0.689
PC-14 | 0.229
EKVX | 0.366
LC-2-ad | 0.744

Same assay, conditions: first compound 0.8 µM

Cell Line | relative viability
HCC-44 | 0.93
LU99A | 0.767
BEN | 0.635
HARA | 0.52
HCC-78 | 0.756
NCI-H322M | 0.708
LCLC-97TM1 | 0.198
NCI-H2009 | 0.358
A-427 | 0.534
NCI-H441 | 0.238
NCI-H661 | 0.58
NCI-H1734 | 0.461
NCI-H460 | 0.501
NCI-H2347 | 0.602
SK-LU-1 | 0.664
201T | 0.873
NCI-H1915 | 0.268

Cell Line | relative viability
HCC-827 | 0.297
LXF-289 | 0.395
NCI-H23 | 0.335
NCI-H647 | 0.415
NCI-H1651 | 0.659
EPLC-272H | 0.37
NCI-H1792 | 0.508
NCI-H1355 | 0.362
NCI-H3122 | 0.472
NCI-H1437 | 0.655
NCI-H1755 | 0.714
NCI-H2023 | 0.258
HCC-15 | 0.637
PC-14 | 0.217
EKVX | 0.366
LC-2-ad | 0.834

Same assay, conditions: first compound 2.53 µM

Cell Line | relative viability
HCC-44 | 1.04
LU99A | 0.838
BEN | 0.804
HARA | 0.519
HCC-78 | 0.708
NCI-H322M | 0.723
LCLC-97TM1 | 0.25
NCI-H2009 | 0.373
A-427 | 0.547
NCI-H441 | 0.252
NCI-H661 | 0.551
NCI-H1734 | 0.488
NCI-H460 | 0.497
NCI-H2347 | 0.629
SK-LU-1 | 0.616
201T | 0.87
NCI-H1915 | 0.263

Cell Line | relative viability
HCC-827 | 0.342
LXF-289 | 0.371
NCI-H23 | 0.311
NCI-H647 | 0.45
NCI-H1651 | 0.658
EPLC-272H | 0.438
NCI-H1792 | 0.5
NCI-H1355 | 0.353
NCI-H3122 | 0.448
NCI-H1437 | 0.586
NCI-H1755 | 0.737
NCI-H2023 | 0.24
HCC-15 | 0.625
PC-14 | 0.266
EKVX | 0.325
LC-2-ad | 0.808

Same assay, conditions: first compound 8 µM

Cell Line | relative viability
HCC-44 | 0.949
LU99A | 0.705
BEN | 0.688
HARA | 0.563
HCC-78 | 0.589
NCI-H322M | 0.768
LCLC-97TM1 | 0.204
NCI-H2009 | 0.297
